In patent publication US7812037B2, “Dual antiplatelet/anticoagulant pyridoxine analogs” (Medicure International, Inc., priority 2004, dated 2010) one finds inhibition and Ki data, which are given here for 18 molecules.

Experiment [1] relates to platelets (platelet rich plasma). Description: Inhibition of platelet aggregation, collagen as agonist. It is filed as cell-based. The note with it: human PRP; for inhibition at 50 µM: compound 50 μM; for inhibition at 100 µM: compound 100 μM; for inhibition at 30 µM: compound 30 μM. On the procedure:
(§1) Platelet rich plasma (PRP) was obtained by drawing whole blood from normal human donors (not on any medication) into sodium citrate tubes (3.2%), and centrifuging at 160×g for about 10 minutes. Platelet poor plasma (PPP) was obtained by centrifuging the remainder of the sample after the platelets were removed at 800×g for about 10 minutes. The PRP was adjusted to a count of 280×10^9/L using a mixture of PRP and PPP. The platelets (200 μL) were incubated with the test compounds (25 μL) adjusted to various concentrations (5, 10, 20, 30, 50, and 100 μM) for about 30 minutes at room temperature (approximate final platelet count in the incubation mixture of 250×10^9/L). The samples were incubated for about 3 minutes at about 37° C., and then transferred to the mixing wells of a Chrono-log 4 channel aggregometer (Chrono-log Corp., Havertown, Pa.). After baselines were established, agonist (25 μL of 40 μM ADP (Sigma, St. Louis, Mo.) or 25 μL of 50 μg/mL and 10 μg/mL collagen (Helena Laboratories, Beaumont, Tex.) or 25 μL of 120 μM thrombin receptor activating peptide (TRAP) (Sigma)) was then added. Aggregation was monitored for 5 minutes at 37° C. with stirring (1000 rpm). The amplitude and slope of each tracing were calculated to determine the amount of aggregation. Control samples were performed using only solvent. The % reduction in aggregation was calculated for each sample compared to the proper solvent control.

Experiment [2] has the same test system. Description: Inhibition of platelet aggregation, ADP as agonist. The note with it: ADP 4 μM, human PRP, read-out: % Reduction in Aggregation ADP (4 μM); for inhibition at 30 µM: compound 30 μM. The class given is cell-based. The protocol: as §1
Experiment [3] has the same test system. In words: Inhibition of platelet aggregation, thrombin receptor activating peptide (TRAP) as agonist. It is filed as cell-based. The note with it: TRAP 12 μM, human PRP, read-out: % Reduction in Aggregation TRAP (12 μM); for inhibition at 30 µM: compound 30 μM. The protocol:
as §1

Experiment [4] concerns the target T1, Human Thrombin (Homo sapiens, UniProt P00734).
T1 construct: Determination of Anti-Thrombin (Factor IIa) Activity; purchased Calbiochem
Description: Determination of Anti-Thrombin (Factor IIa) Activity. The note with it: competitive inhibition; substrate Pefachrome Thr; pH 8.3. It is filed as biochemical. The protocol:
The test compounds (40 μL) adjusted to various concentrations (0.25 to 100 μM) were incubated with Human Thrombin (Calbiochem) enzyme (5 nM) in 31 mM Tris buffer (pH 8.3) containing 81 mM sodium chloride and 0.63% bovine serum albumin (fraction V)(80 μL) at room temperature for about 30 minutes. 80 μL of Pefachrome® Thr (Pentapharm) was adjusted to various concentrations, from 62.5 μM to 1.25 mM. The activity was measured at about 37° C. by monitoring absorbance at 405 nm for about 15 minutes using a FLUOstar OPTIMA™. Control sample was the solvent alone. Each test compound was analyzed twice using 4 concentrations of compound plus control (in duplicate) with 5 concentrations of substrate (50, 100, 200, 300 and 500 μM). The specific activity (ΔA405/min/nM enzyme) was determined for each data point. The Ki for competitive inhibition was then determined for each test compound using the Enzyme Kinetics module of Sigmaplot 8.0 (SPSS).

Experiment [5] addresses T2, Human FXa (Homo sapiens, UniProt P00742).
T2 construct: Determination of Anti-Factor Xa (Fxa) Activity; purchased Calbiochem
Description: Determination of Anti-Factor Xa (Fxa) Activity. It is filed as biochemical. The note with it: competitive inhibition; substrate Pefachrome Xa; pH 7.5. The protocol:
The test compounds (40 μL) adjusted to various concentrations (0.25 to 100 μM) were incubated with 5 nM Human FXa (Calbiochem, San Diego, Calif.) enzyme in 125 mM Tris [Tris(hydroxymethyl)aminomethane] buffer (pH 7.5) containing 375 mM sodium chloride and 0.25% polyethylene glycol (MW 8000) (80 μL) at room temperature for about 30 minutes. 80 μL of synthetic substrate Pefachrome® Xa (Pentapharm, Basel, Switzerland), adjusted to various concentrations from 125 μM to 1.25 mM, was added. The activity was measured at 37° C. by monitoring absorbance at 405 nm for 15 minutes using a FLUOstar OPTIMA™ (BMG Labtech GmbH, Offenburg, Germany) microplate reader. Control sample was the solvent alone. Each test compound was analyzed twice using 4 concentrations of compound plus control (in duplicate) with 5 concentrations of substrate (50, 100, 200, 300 and 500 μM). The specific activity (ΔA405/min/nM enzyme) was determined for each data point. The Ki for competitive inhibition was then determined for each test compound using the Enzyme Kinetics module of Sigmaplot 8.0 (SPSS Inc., Chicago, Ill.).

[6] abbreviates: collagen 1 μg/mL, read-out: % Reduction in Aggregation Collagen (1 μg/mL).
Setting [7] is: collagen 5 μg/mL, read-out: % Reduction in Aggregation Collagen (5 μg/mL).

Structures are written as SMILES.

T2 sequence (P00742 235-488 limits assumed): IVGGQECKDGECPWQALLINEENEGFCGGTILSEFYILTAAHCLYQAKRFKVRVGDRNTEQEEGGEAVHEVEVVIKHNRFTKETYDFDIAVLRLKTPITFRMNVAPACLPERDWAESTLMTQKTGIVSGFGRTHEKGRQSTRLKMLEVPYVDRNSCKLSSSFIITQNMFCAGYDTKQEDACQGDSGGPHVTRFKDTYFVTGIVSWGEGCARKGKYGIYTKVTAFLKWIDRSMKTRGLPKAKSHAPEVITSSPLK
T2 sequence (P00742 41-179 partner limits assumed): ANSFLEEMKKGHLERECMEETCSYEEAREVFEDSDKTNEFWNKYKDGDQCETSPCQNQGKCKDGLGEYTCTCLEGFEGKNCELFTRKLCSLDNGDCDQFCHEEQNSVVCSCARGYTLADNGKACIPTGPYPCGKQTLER

On to `Cc1ncc(CO)c(CNc2ccc(C(=N)N)cc2)c1OCc1ccc(C(=N)N)cc1` [Compound 3, 4-{[3-(4-Carbamimidoyl-benzyloxy)-5-hydroxymethyl-2-methyl-pyridin-4-ylmethyl]-amino}-benzamidine], for which the inhibition at 50 µM is 20% in experiment [1] (setting [6]), 0% in experiment [1] (setting [7]), 27% in experiment [2] (compound 50 μM) and 81% in experiment [3] (compound 50 μM).

For the molecule `Cc1ncc(COc2ccc(C(=N)N)cc2)c(CO)c1OCc1ccc(C(=N)N)cc1` [Compound 15, 4-(5-(4-Carbamimidoyl-benzyloxy)-4-hydroxymethyl-6-methyl-pyridin-3-ylmethoxy)-benzamidine], the figures for the Ki in experiment [4] and in experiment [5] were 1650 nM and 11000 nM, respectively.

With `Cc1ncc(COc2ccc(C(=N)N)cc2)c(C(F)F)c1OCc1ccc(C(=N)N)cc1` [Compound 21, 4-[4,4-Difluoromethyl-6-methyl-5-(4-carbamimidoyl-benzyloxy)-pyridin-3-ylmethoxy]-benzamidine], the figures for the Ki in experiment [4] and in experiment [5] were 510 nM and 19000 nM, respectively.

For `Cc1ncc(CNc2ccc(-c3ccc(C(=N)N)cc3)cc2)c(CNCCCCCC(=O)O)c1O` [Compound 46, 6-({5-[(4′-Carbamimidoyl-biphenyl-4-ylamino)-methyl]-3-hydroxy-2-methyl-pyridin-4-ylmethyl}-amino)-hexanoic acid], the inhibition at 100 µM in experiment [1] (setting [6]) worked out at 35%; in experiment [1] (setting [7]), 19%; in experiment [2] (compound 100 μM), 46%; in experiment [3] (compound 100 μM) it was 29%.

With `Cc1ncc(CNc2ccc(C(=N)N)cc2)c(CNCCCCCC(=O)O)c1OCc1ccc(C(=N)N)cc1` [Compound 54, 6-({3-(4-Carbamimidoyl-benzyloxy)-5-[(4-carbamimidoyl-phenylamino)-methyl]-2-methyl-pyridin-4-ylmethyl}-amino)-hexanoic acid], the inhibition at 30 µM was 15% in experiment [1] (setting [6]), 13% in experiment [1] (setting [7]), 23% in experiment [2] and 53% in experiment [3].

Regarding `Cc1ncc(CNc2ccc(-c3ccc(C(=N)N)cc3)cc2F)c(CO)c1OCc1ccc(C(=N)N)cc1` [Compound 63, 4′-{[5-(4-Carbamimidoyl-benzyloxy)-4-hydroxymethyl-6-methyl-pyridin-3-ylmethyl]-amino}-3′-fluoro-biphenyl-4-carboxamidine], the inhibition at 30 µM in experiment [1] (setting [6]) turned out to be 95%; in experiment [1] (setting [7]), 41%; in experiment [2], 95%; in experiment [3], 94%.

Take `Cc1ncc(COc2ccc(C(=N)N)cc2)c(C)c1OCc1cccc(C(=N)N)c1` [Compound 70, 4-[4,6-Dimethyl-5-(3-carbamimidoyl-benzyloxyl)-pyridin-3-ylmethoxy]-benzamidine]: the values for the Ki in experiment [4] and in experiment [5] were 700 nM and 9000 nM, respectively.

`Cc1ncc(CNC(=O)c2ccc(C(=N)N)cc2)c(CO)c1OCc1ccc(C(=N)N)cc1` [Compound 73, 4-Carbamimidoyl-N-[5-(4-carbamimidoyl-benzyloxy)-4-hydroxymethyl-6-methyl-pyridin-3-ylmethyl]-benzamide]: the Ki is 720 nM in experiment [4] and 3500 nM in experiment [5].

Turning to `CCc1c(CNc2ccc(C(=N)N)cc2)cnc(C)c1OCc1cccc(C(=N)N)c1` [Compound 103, 3-{5-[(4-Amidino-phenylamino)-methyl]-4-ethyl-2-methyl-pyridin-3-yloxymethyl}-benzamidine], the results for the Ki in experiment [4] and in experiment [5] were 47 nM and 961 nM, respectively.

As to `Cc1ncc(CNc2ccc(C(=N)N)cc2)c(CF)c1OCc1cccc(C(=N)N)c1` [Compound 108, 4-{[4-Fluoromethyl-5-(3-amidine-benzyloxy)-6-methyl-pyridin-3-ylmethyl]-amino}-benzamidine], the Ki in experiment [5] turned out to be 378 nM.

`Cc1ncc(CNc2ccc(C(=N)N)cc2)cc1OCc1cccc(C(=N)N)c1` [Compound 136, 4-((5-(3-amidinebenzyloxy)-6-methylpyridin-3-yl)methylamino)benzamidine]: the Ki was determined as 333 nM in experiment [4] and 503 nM in experiment [5].

Turning to `Cc1c(CNc2ccc(C(=N)N)cc2)cnc(CO)c1OCc1cccc(C(=N)N)c1` [Compound 138, 4-{[5-(3-Amidine-benzyloxy)-6-hydroxymethyl-4-methyl-pyridin-3-ylmethyl]-amino}-benzamidine], the Ki is 39 nM in experiment [4] and 412 nM in experiment [5].

As to `Cc1c(CNc2ccc(C(=N)N)cc2)cnc(CF)c1OCc1cccc(C(=N)N)c1` [Compound 140, 4-{[5-(3-Amidine-benzyloxy)-6-fluoro-methyl-4-methyl-pyridin-3-ylmethyl]-amino}-benzamidine], the values for the inhibitory constant (Ki) in experiment [4] and in experiment [5] were 17 nM and 423 nM, respectively.

For `Cc1c(CNc2ccc(C(=N)N)cc2)cnc(C=O)c1OCc1cccc(C(=N)N)c1` [Compound 142, 4-{[5-(3-Amidine-benzyloxy)-6-formyl-4-methyl-pyridin-3-ylmethyl]-amino}-benzamidine], the Ki in experiment [4] stood at 186 nM; in experiment [5], 589 nM.

As to `N=C(N)c1ccc(NCc2cnc(CF)c(OCc3cccc(C(=N)N)c3)c2CF)cc1` [Compound 148, 4-{[4,6-Bis-fluoromethyl-5-(3-amidine-benzyloxy)-pyridin-3-ylmethyl]-amino}-benzamidine], the Ki in experiment [4] turned out to be 9 nM; in experiment [5] it was 473 nM.

In the case of `N=C(N)c1ccc(COc2c(CF)ncc(CNc3ccc(C(=N)N)cc3)c2CF)cc1` [Compound 153, 4-{5-[(4-Carbamimidoyl-phenylamino)-methyl]-2,4-bis-fluoromethyl-pyridin-3-yloxymethyl}-benzamidine], the Ki was 12 nM in experiment [4] and 665 nM in experiment [5].

On to `Cc1nc(C2CC2)c(CNc2ccc(C(=N)N)cc2)c(CO)c1OCc1cccc(C(=N)N)c1` [Compound 172, 3-{5-[(4-Carbamimidoyl-phenylamino)-methyl]-6-cyclopropyl-4-hydroxymethyl-2-methyl-pyridin-3-yloxymethyl}-benzamidine], for which the values for the Ki in experiment [4] and in experiment [5] were 41 nM and 380 nM, respectively.

Turning to `Cc1nc(C2CC2)c(CNc2ccc(C(=N)N)cc2)c(CO)c1OCc1ccc(C(=N)N)cc1` [Compound 174, 4-{5-[(4-Carbamimidoyl-phenylamino)-methyl]-6-cyclopropyl-4-hydroxymethyl-2-methyl-pyridin-3-yloxymethyl}-benzamidine], the Ki is 37 nM in experiment [4] and 1080 nM in experiment [5].
